Where two headings read alike, the source gives them in different places. Marks after values point to notes of the source that are not given here.
What was measured:
[1] = test system: A549/ATCC; format: cell-based
[2] = Preliminary toxicology, subcutaneous injection for 14 days; format: in vivo, CD-1 female mice; details: CD-1 female mice; 80 mg/kg/day s.c. 14 days
Experimental: The toxicological effects of CLT, and compounds 28, 30 and 31 were tested in CD-1 female mice. A dose of 80 mg/kg/day was given to each mouse via subcutaneous injection for a period of 14 days. Preliminary toxicological data was determined by measuring body weight, gross pathology of organs blood chemistry and histology. The vehicle used was DMF 12%+2% Tween 20 88%.

[3] = test system: H209 small lung cell carcinoma; experiment: Mouse xenograft tumor growth; format: in vivo, SCID mice
[4] = test system: SF-295; experiment: In-Vitro Testing SRB panel: CNS Cancer; format: cell-based; details: SF-295
[5] = test system: ROP-92; format: cell-based
[6] = test system: CARI-1; experiment: In-Vitro Testing SRB panel: Renal Cancer; format: cell-based
[7] = test system: NCI-H460; format: cell-based; details: NCI-H460
[8] = test system: K-562; experiment: In-Vitro Testing SRB panel: Leukemia; format: cell-based
[9] = test system: CCRF-CEM; experiment: In-Vitro Testing SRB panel: Leukemia; format: cell-based
[10] = test system: DU-145; experiment: In-Vitro Testing SRB panel: Prostate Cancer; format: cell-based; details: DU-145
[11] = test system: squamous cell carcinoma (KLN-205) cells; experiment: Tumor growth in murine squamous cell carcinoma model; format: in vivo, mouse; details: KLN-205; subcutaneous injection or oral administration of 80 mg/kg/day for 30 days
[12] = test system: KM12; experiment: In-Vitro Testing SRB panel: Colon Cancer; format: cell-based; details: KM12
[13] = test system: NCI-H522; format: cell-based; details: NCI-H522
[14] = test system: BT-549; experiment: In-Vitro Testing SRB panel: Breast Cancer; format: cell-based; details: BT-549
[15] = test system: TK-10; experiment: In-Vitro Testing SRB panel: Renal Cancer; format: cell-based; details: TK-10
[16] = test system: SNB-75; experiment: In-Vitro Testing SRB panel: CNS Cancer; format: cell-based; details: SNB-75
[17] = Homo sapiens, read-out: LC50 (the source's name)

## COc1cccc2c1C(c1ccccc1Cl)c1cc(Cl)ccc1N(C(=O)c1ccc([N+](=O)[O-])cc1)C2 (stereo not drawn) [Compound 31]
[1]; A549/ATCC
  TGI: >1.00E−04 Molar
[1]; A549/ATCC, log10 conc -4 Molar
  Percent Growth: 3%
[1]; A549/ATCC, log10 conc -5 Molar
  Percent Growth: 11%
[1]; A549/ATCC, log10 conc -6 Molar
  Percent Growth: 61%
[1]; A549/ATCC, log10 conc -7 Molar
  Percent Growth: 98%
[1]; A549/ATCC, log10 conc -8 Molar
  Percent Growth: 94%
[1]; Homo sapiens, A549
  GI50: 1.67 µM
[1]; Homo sapiens, A549/ATCC, read-out: LC50 (the source's name)
  CC50: > 100 µM
[2]
  Body Weight Change: 113%
  Liver Weight: 1.49 ± 0.04^c g
  RBC: 8.6 ± 1.6 10^6/mm^3
  WBC: 7.2 ± 1.7 10^3/mm^3
  WBC, RBC, BUN and creatine levels: no differences were found
[3]
  tumor growth: showed inhibition of tumor growth
[4]; Homo sapiens
  GI50: 13.5 µM
[4]; [17]
  CC50: > 100 µM
[4]
  TGI: >1.00E−04 Molar
[4]; log10 conc -4 Molar
  Percent Growth: 34%
[4]; log10 conc -5 Molar
  Percent Growth: 52%
[4]; log10 conc -6 Molar
  Percent Growth: 75%
[4]; log10 conc -7 Molar
  Percent Growth: 98%
[4]; log10 conc -8 Molar
  Percent Growth: 97%
[5]; Homo sapiens
  GI50: 5.53 µM
[5]; Homo sapiens, ROP-92, read-out: LC50 (the source's name)
  CC50: > 100 µM
[5]; ROP-92
  TGI: >1.00E−04 Molar
[5]; ROP-92, log10 conc -4 Molar
  Percent Growth: 27%
[5]; ROP-92, log10 conc -5 Molar
  Percent Growth: 42%
[5]; ROP-92, log10 conc -6 Molar
  Percent Growth: 74%
[5]; ROP-92, log10 conc -7 Molar
  Percent Growth: 88%
[5]; ROP-92, log10 conc -8 Molar
  Percent Growth: 89%
[6]; CARI-1
  TGI: >1.00E−04 Molar
[6]; CARI-1, log10 conc -4 Molar
  Percent Growth: 4%
[6]; CARI-1, log10 conc -5 Molar
  Percent Growth: 37%
[6]; CARI-1, log10 conc -6 Molar
  Percent Growth: 48%
[6]; CARI-1, log10 conc -7 Molar
  Percent Growth: 80%
[6]; CARI-1, log10 conc -8 Molar
  Percent Growth: 103%
[6]; Homo sapiens
  GI50: 0.888 µM
[6]; Homo sapiens, CARI-1, read-out: LC50 (the source's name)
  CC50: > 100 µM
[7]; Homo sapiens
  GI50: 0.595 µM
[7]; [17]
  CC50: > 100 µM
[7]
  TGI: 2.81E−05 Molar
[7]; log10 conc -4 Molar
  Percent Growth: −16%
[7]; log10 conc -5 Molar
  Percent Growth: 10%
[7]; log10 conc -6 Molar
  Percent Growth: 36%
[7]; log10 conc -7 Molar
  Percent Growth: 99%
[7]; log10 conc -8 Molar
  Percent Growth: 96%
[8]; Homo sapiens, K562
  GI50: 0.506 µM
[8]; Homo sapiens, K562, K-562, read-out: LC50 (the source's name)
  CC50: > 100 µM
[8]; K-562
  TGI: >1.00E−04 Molar
[8]; K-562, log10 conc -4 Molar
  Percent Growth: 15%
[8]; K-562, log10 conc -5 Molar
  Percent Growth: 24%
[8]; K-562, log10 conc -6 Molar
  Percent Growth: 39%
[8]; K-562, log10 conc -7 Molar
  Percent Growth: 77%
[8]; K-562, log10 conc -8 Molar
  Percent Growth: 93%
[9]
  TGI: >1.00E−04 Molar
[9]; Homo sapiens
  GI50: 1.53 µM
[9]; [17]
  CC50: > 100 µM
[9]; log10 conc -4 Molar
  Percent Growth: 2%
[9]; log10 conc -5 Molar
  Percent Growth: 21%
[9]; log10 conc -6 Molar
  Percent Growth: 56%
[9]; log10 conc -7 Molar
  Percent Growth: 94%
[9]; log10 conc -8 Molar
  Percent Growth: 111%
[10]
  TGI: >1.00E−04 Molar
[10]; log10 conc -4 Molar
  Percent Growth: 26%
[10]; log10 conc -5 Molar
  Percent Growth: 43%
[10]; log10 conc -6 Molar
  Percent Growth: 84%
[10]; log10 conc -7 Molar
  Percent Growth: 105%
[10]; log10 conc -8 Molar
  Percent Growth: 105%
[10]; Homo sapiens
  GI50: 6.84 µM
[10]; [17]
  CC50: > 100 µM
[11]
  tumor growth: significantly inhibited tumor growth
[12]; Homo sapiens
  GI50: 0.519 µM
[12]; [17]
  CC50: > 100 µM
[12]
  TGI: >1.00E−04 Molar
[12]; log10 conc -4 Molar
  Percent Growth: 20%
[12]; log10 conc -5 Molar
  Percent Growth: 32%
[12]; log10 conc -6 Molar
  Percent Growth: 38%
[12]; log10 conc -7 Molar
  Percent Growth: 80%
[12]; log10 conc -8 Molar
  Percent Growth: 99%
[13]; Homo sapiens
  GI50: 7.48 µM
[13]; [17]
  CC50: > 100 µM
[13]
  TGI: >1.00E−04 Molar
[13]; log10 conc -4 Molar
  Percent Growth: 36%
[13]; log10 conc -5 Molar
  Percent Growth: 44%
[13]; log10 conc -6 Molar
  Percent Growth: 89%
[13]; log10 conc -7 Molar
  Percent Growth: 88%
[13]; log10 conc -8 Molar
  Percent Growth: 99%
[14]
  TGI: >1.00E−04 Molar
[14]; log10 conc -4 Molar
  Percent Growth: 11%
[14]; log10 conc -5 Molar
  Percent Growth: 43%
[14]; log10 conc -6 Molar
  Percent Growth: 59%
[14]; log10 conc -7 Molar
  Percent Growth: 94%
[14]; log10 conc -8 Molar
  Percent Growth: 92%
[14]; Homo sapiens
  GI50: 3.83 µM
[14]; [17]
  CC50: > 100 µM
[15]; Homo sapiens
  GI50: 16.9 µM
[15]; [17]
  CC50: > 100 µM
[15]
  TGI: >1.00E−04 Molar
[15]; log10 conc -4 Molar
  Percent Growth: 34%
[15]; log10 conc -5 Molar
  Percent Growth: 55%
[15]; log10 conc -6 Molar
  Percent Growth: 85%
[15]; log10 conc -7 Molar
  Percent Growth: 105%
[15]; log10 conc -8 Molar
  Percent Growth: 102%
[16]; Homo sapiens
  GI50: 5.9 µM
[16]; [17]
  CC50: > 100 µM
[16]
  TGI: 6.40E−05 Molar
[16]; log10 conc -4 Molar
  Percent Growth: −11%
[16]; log10 conc -5 Molar
  Percent Growth: 44%
[16]; log10 conc -6 Molar
  Percent Growth: 82%
[16]; log10 conc -7 Molar
  Percent Growth: 100%
[16]; log10 conc -8 Molar
  Percent Growth: 103%
